Assay results: patent publication US10344060B2 (priority 2013, dated 2019)

Each compound was assayed against hNav1.7 (Homo sapiens, UniProt Q15858) (assay: cell-based). Conditions: Table 12; PatchXpress, tonic block; read-out: PX hNav1.7 Tonic IC50.
Assay type: cell-based

Chain of hNav1.7 (Q15858 whole entry): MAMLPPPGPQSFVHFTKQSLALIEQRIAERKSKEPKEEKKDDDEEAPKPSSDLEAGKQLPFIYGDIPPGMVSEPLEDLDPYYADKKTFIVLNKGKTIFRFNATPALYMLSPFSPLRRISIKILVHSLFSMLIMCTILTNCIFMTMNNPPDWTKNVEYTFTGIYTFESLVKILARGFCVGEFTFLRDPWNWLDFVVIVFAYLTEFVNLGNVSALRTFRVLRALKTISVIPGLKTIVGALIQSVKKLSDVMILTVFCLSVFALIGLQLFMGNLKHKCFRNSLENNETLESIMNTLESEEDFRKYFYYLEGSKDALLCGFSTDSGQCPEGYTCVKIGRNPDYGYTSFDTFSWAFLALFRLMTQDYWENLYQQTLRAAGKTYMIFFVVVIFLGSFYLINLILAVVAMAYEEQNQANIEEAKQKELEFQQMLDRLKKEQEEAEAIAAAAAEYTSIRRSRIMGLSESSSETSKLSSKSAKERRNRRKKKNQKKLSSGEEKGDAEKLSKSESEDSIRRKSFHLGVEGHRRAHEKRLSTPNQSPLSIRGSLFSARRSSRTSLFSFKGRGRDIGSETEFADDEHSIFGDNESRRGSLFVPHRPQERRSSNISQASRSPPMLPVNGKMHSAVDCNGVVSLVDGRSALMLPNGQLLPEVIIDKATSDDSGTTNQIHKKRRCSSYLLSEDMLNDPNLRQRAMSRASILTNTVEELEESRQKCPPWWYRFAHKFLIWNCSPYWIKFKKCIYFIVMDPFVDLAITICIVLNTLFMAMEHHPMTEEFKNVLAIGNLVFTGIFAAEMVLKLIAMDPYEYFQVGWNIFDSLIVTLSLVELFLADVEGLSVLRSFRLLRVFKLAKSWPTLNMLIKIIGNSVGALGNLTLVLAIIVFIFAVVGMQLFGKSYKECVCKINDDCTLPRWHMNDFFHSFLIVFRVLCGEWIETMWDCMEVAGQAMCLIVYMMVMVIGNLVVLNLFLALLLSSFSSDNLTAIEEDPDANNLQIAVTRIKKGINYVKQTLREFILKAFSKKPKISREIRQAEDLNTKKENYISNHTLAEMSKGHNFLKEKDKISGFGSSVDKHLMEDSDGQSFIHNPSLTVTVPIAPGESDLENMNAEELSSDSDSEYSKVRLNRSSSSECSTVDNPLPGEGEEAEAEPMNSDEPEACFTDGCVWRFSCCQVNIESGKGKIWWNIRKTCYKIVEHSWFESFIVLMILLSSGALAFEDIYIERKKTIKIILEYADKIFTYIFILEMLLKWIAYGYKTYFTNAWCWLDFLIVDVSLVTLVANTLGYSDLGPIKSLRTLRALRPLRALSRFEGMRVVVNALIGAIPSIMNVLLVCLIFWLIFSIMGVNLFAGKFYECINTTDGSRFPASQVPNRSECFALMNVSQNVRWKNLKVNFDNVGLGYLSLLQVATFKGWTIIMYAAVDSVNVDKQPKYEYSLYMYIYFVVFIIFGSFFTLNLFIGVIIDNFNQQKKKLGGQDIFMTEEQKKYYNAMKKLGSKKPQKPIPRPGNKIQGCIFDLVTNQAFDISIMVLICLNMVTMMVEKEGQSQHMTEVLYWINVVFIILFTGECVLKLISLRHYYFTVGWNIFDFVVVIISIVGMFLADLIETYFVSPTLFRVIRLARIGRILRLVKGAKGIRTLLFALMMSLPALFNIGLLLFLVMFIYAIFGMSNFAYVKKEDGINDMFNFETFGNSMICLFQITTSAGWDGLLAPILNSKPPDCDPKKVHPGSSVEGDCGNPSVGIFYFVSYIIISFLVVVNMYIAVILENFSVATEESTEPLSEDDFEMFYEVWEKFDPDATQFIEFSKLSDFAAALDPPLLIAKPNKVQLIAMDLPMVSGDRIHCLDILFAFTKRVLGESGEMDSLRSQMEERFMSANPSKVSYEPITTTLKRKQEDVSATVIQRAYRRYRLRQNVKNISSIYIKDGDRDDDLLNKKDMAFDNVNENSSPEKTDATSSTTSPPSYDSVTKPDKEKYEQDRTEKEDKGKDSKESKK

Row | Structure (SMILES) | IC50
1 | C#CC[C@@H]1NC(=O)[C@H](CO)NC(=O)[C@H](CC(=O)O)NC(=O)[C@@H]2CSSC[C@@H]3NC(=O)[C@H](CCCNC(=N)N)NC(=O)[C@H](CC(C)C)NC(=O)CNC(=O)[C@H](CCC(=O)O)NC(=O)[C@H](CSSC[C@H](NC(=O)[C@@H](N)Cc4ccc(O)cc4)C(=O)N[C@@H](CCC(N)=O)C(=O)N[C@@H](CCCCN)C(=O)N[C@@H](Cc4c[nH]c5ccccc45)C(=O)N[C@@H](CCCC)C(=O)N[C@@H](Cc4c[nH]c5ccccc45)C(=O)N[C@@H]([C@@H](C)O)C(=O)N2)NC(=O)[C@H](CSSC[C@@H](C(=O)N[C@@H](CCCNC(=N)N)C(=O)N[C@@H](CCCCN)C(=O)N[C@@H](CCC(=O)O)C(=O)N[C@H](C(N)=O)[C@@H](C)CC)NC(=O)[C@H](Cc2c[nH]c4ccccc24)NC(=O)[C@H](CC(C)C)NC(=O)[C@H](CCCCN)NC3=O)NC(=O)[C@H](C)NC(=O)[C@H](CCCNC(=N)N)NC1=O [compound 879] | 1.35 nM
2 | C#CC[C@H](N)C(=O)N[C@@H](Cc1ccc(O)cc1)C(=O)N[C@H]1CSSC[C@@H]2NC(=O)[C@@H]3CSSC[C@@H](C(=O)N[C@@H](CCCNC(=N)N)C(=O)N[C@@H](CCCCN)C(=O)N[C@@H](CCC(=O)O)C(=O)N[C@H](C(N)=O)[C@@H](C)CC)NC(=O)[C@H](Cc4c[nH]c5ccccc45)NC(=O)[C@H](CC(C)C)NC(=O)[C@H](CCC(N)=O)NC(=O)[C@H](CSSC[C@H](NC(=O)[C@H]([C@@H](C)O)NC(=O)[C@H](Cc4c[nH]c5ccccc45)NC(=O)[C@H](CCCC)NC(=O)[C@H](Cc4c[nH]c5ccccc45)NC(=O)[C@H](CCCCN)NC(=O)[C@H](CCC(N)=O)NC1=O)C(=O)N[C@@H](CC(=O)O)C(=O)N[C@@H](CO)C(=O)N[C@@H](CCCCN)C(=O)N[C@@H](CCCNC(=N)N)C(=O)N[C@@H](C)C(=O)N3)NC(=O)[C@H](CCCNC(=N)N)NC(=O)[C@H](CC(C)C)NC(=O)CNC(=O)[C@H](CCC(=O)O)NC2=O [compound 804] | 35.3 nM
3 | C#CC[C@H](N)C(=O)N[C@@H](Cc1ccc(O)cc1)C(=O)N[C@H]1CSSC[C@@H]2NC(=O)[C@@H]3CSSC[C@@H](C(=O)N[C@@H](CCCNC(=N)N)C(=O)N[C@@H](CCCCN)C(=O)N[C@@H](CCC(=O)O)C(=O)N[C@H](C(N)=O)[C@@H](C)CC)NC(=O)[C@H](Cc4c[nH]c5ccccc45)NC(=O)[C@H](CC(C)C)NC(=O)[C@H](CCCCN)NC(=O)[C@H](CSSC[C@H](NC(=O)[C@H]([C@@H](C)O)NC(=O)[C@H](Cc4c[nH]c5ccccc45)NC(=O)[C@H](CCCC)NC(=O)[C@H](Cc4c[nH]c5ccc(Br)cc45)NC(=O)[C@H](CCCCN)NC(=O)[C@H](CCC(N)=O)NC1=O)C(=O)N[C@@H](CC(=O)O)C(=O)N[C@@H](CO)C(=O)N[C@@H](CCCCN)C(=O)N[C@@H](CCCNC(=N)N)C(=O)N[C@@H](C)C(=O)N3)NC(=O)[C@H](CCCNC(=N)N)NC(=O)[C@H](CC(C)C)NC(=O)CNC(=O)[C@H](CCC(=O)O)NC2=O [compound 845] | 53.5 nM
4 | C#CC[C@H](N)C(=O)N[C@@H](Cc1ccc(O)cc1)C(=O)N[C@H]1CSSC[C@@H]2NC(=O)[C@@H]3CSSC[C@@H](C(=O)N[C@@H](CCCNC(=N)N)C(=O)N[C@@H](CCCCN)C(=O)N[C@@H](CCC(=O)O)C(=O)N[C@H](C(N)=O)[C@@H](C)CC)NC(=O)[C@H](Cc4ccc5ccccc5c4)NC(=O)[C@H](CC(C)C)NC(=O)[C@H](CCCCN)NC(=O)[C@H](CSSC[C@H](NC(=O)[C@H]([C@@H](C)O)NC(=O)[C@H](Cc4c[nH]c5ccccc45)NC(=O)[C@H](CCCC)NC(=O)[C@H](Cc4c[nH]c5ccccc45)NC(=O)[C@H](CCCCN)NC(=O)[C@H](CCC(N)=O)NC1=O)C(=O)N[C@@H](CC(=O)O)C(=O)N[C@@H](CO)C(=O)N[C@@H](CCCCN)C(=O)N[C@@H](CCCNC(=N)N)C(=O)N[C@@H](C)C(=O)N3)NC(=O)[C@H](CCCNC(=N)N)NC(=O)[C@H](CC(C)C)NC(=O)CNC(=O)[C@H](CCC(=O)O)NC2=O [compound 852] | 182 nM
5 | C#CC[C@H](N)C(=O)N[C@@H](Cc1ccc(O)cc1)C(=O)N[C@H]1CSSC[C@@H]2NC(=O)[C@@H]3CSSC[C@@H](C(=O)N[C@@H](CCCNC(=N)N)C(=O)N[C@@H](CCCCN)C(=O)N[C@@H](Cc4c[nH]cn4)C(=O)N[C@H](C(N)=O)[C@@H](C)CC)NC(=O)[C@H](Cc4c[nH]c5ccccc45)NC(=O)[C@H](CC(C)C)NC(=O)[C@H](CCCCN)NC(=O)[C@H](CSSC[C@H](NC(=O)[C@H]([C@@H](C)O)NC(=O)[C@H](Cc4c[nH]c5ccccc45)NC(=O)[C@H](CCCC)NC(=O)[C@H](Cc4c[nH]c5ccccc45)NC(=O)[C@H](CCCCN)NC(=O)[C@H](CCC(N)=O)NC1=O)C(=O)N[C@@H](CC(=O)O)C(=O)N[C@@H](CO)C(=O)N[C@@H](CCCCN)C(=O)N[C@@H](CCCNC(=N)N)C(=O)N[C@@H](C)C(=O)N3)NC(=O)[C@H](CCCNC(=N)N)NC(=O)[C@H](CC(C)C)NC(=O)CNC(=O)[C@H](CCC(=O)O)NC2=O [compound 652] | 0.371 nM

Same assay, conditions: ratio of PX tonic IC50 values; Table 11

Row | Structure (SMILES) | Nav1.4/Nav1.7 | Nav1.5/Nav1.7
6 | CC[C@H](C)[C@H](NC(=O)[C@H](Cc1ccc(O)cc1)NC(=O)[C@H](CCCCN)NC(=O)[C@H](CCCNC(=N)N)NC(=O)[C@@H]1CSSC[C@@H]2NC(=O)[C@H](C)NC(=O)[C@H](CCCNC(=N)N)NC(=O)[C@H](CCCCN)NC(=O)[C@H](CO)NC(=O)[C@H](CC(=O)O)NC(=O)[C@@H]3CSSC[C@H](NC(=O)[C@H](CCC(=O)O)NC(=O)[C@H](CC(C)C)NC(=O)CNC(=O)[C@H](CCC(=O)O)NC(=O)[C@H](CSSC[C@H](NC(=O)[C@@H](N)Cc4ccc(O)cc4)C(=O)N[C@@H](CCC(N)=O)C(=O)N[C@@H](CCCCN)C(=O)N[C@@H](Cc4ccccc4)C(=O)N[C@@H](CCSC)C(=O)N[C@@H](Cc4c[nH]c5ccccc45)C(=O)N[C@@H]([C@@H](C)O)C(=O)N3)NC2=O)C(=O)N[C@@H](CCCCN)C(=O)N[C@@H](CC(C)C)C(=O)N[C@@H](Cc2c[nH]c3ccccc23)C(=O)N1)C(N)=O [compound 193] | 217 | 217
7 | CCCC[C@@H]1NC(=O)[C@H](Cc2c[nH]c3ccccc23)NC(=O)[C@H](CCCCN)NC(=O)[C@H](CCC(N)=O)NC(=O)[C@@H](NC(=O)[C@H](Cc2ccc(O)cc2)NC(=O)[C@H](CCC)NC(=O)[C@@H](N)CC(C)C)CSSC[C@@H]2NC(=O)[C@@H]3CSSC[C@@H](C(=O)N[C@@H](CCCNC(=N)N)C(=O)N[C@@H](CCCCN)C(=O)N[C@@H](CCC(=O)O)C(=O)N[C@H](C(N)=O)[C@@H](C)CC)NC(=O)[C@H](Cc4c[nH]c5ccccc45)NC(=O)[C@H](CC(C)C)NC(=O)[C@H](CCCCN)NC(=O)[C@H](CSSC[C@H](NC(=O)[C@H]([C@@H](C)O)NC(=O)[C@H](Cc4c[nH]c5ccccc45)NC1=O)C(=O)N[C@@H](CC(=O)O)C(=O)N[C@@H](CO)C(=O)N[C@@H](CCCCN)C(=O)N[C@@H](CCCNC(=N)N)C(=O)N[C@@H](C)C(=O)N3)NC(=O)[C@H](CCCNC(=N)N)NC(=O)[C@H](CC(C)C)NC(=O)CNC(=O)[C@H](CCCCNC(=O)CCOCCOCCOCCOCCOCCOCCOCCOCCOCCOCCOCCOCCN)NC2=O [compound 471] | 6 | 110
8 | CCCC[C@@H]1NC(=O)[C@H](Cc2c[nH]c3ccccc23)NC(=O)[C@H](CCCCN)NC(=O)[C@H](CCC(N)=O)NC(=O)[C@@H](NC(=O)[C@H](Cc2ccc(O)cc2)NC(=O)[C@@H](N)CCc2ccccc2)CSSC[C@@H]2NC(=O)[C@@H]3CSSC[C@@H](C(=O)N[C@@H](CCCNC(=N)N)C(=O)N[C@@H](CCCCN)C(=O)N[C@H](C(=O)N[C@H](C(N)=O)[C@@H](C)CC)[C@@H](C)CC)NC(=O)[C@H](Cc4c[nH]c5ccccc45)NC(=O)[C@H](CC(C)C)NC(=O)[C@H](CCCCN)NC(=O)[C@H](CSSC[C@H](NC(=O)[C@H]([C@@H](C)O)NC(=O)[C@H](Cc4c[nH]c5ccccc45)NC1=O)C(=O)N[C@@H](CC(=O)O)C(=O)N[C@@H](CO)C(=O)N[C@@H](CCCCN)C(=O)N[C@@H](CCCNC(=N)N)C(=O)N[C@@H](C)C(=O)N3)NC(=O)[C@H](CCCNC(=N)N)NC(=O)[C@H](CC(C)C)NC(=O)CNC(=O)[C@H](CCC(=O)O)NC2=O [compound 379] | 10 | 916
9 | CCCC[C@@H]1NC(=O)[C@H](Cc2c[nH]c3ccccc23)NC(=O)[C@H](CCCCN)NC(=O)[C@H](CCC(N)=O)NC(=O)[C@@H](NC(=O)[C@H](Cc2ccc(O)cc2)NC(=O)[C@@H](N)CC#N)CSSC[C@@H]2NC(=O)[C@@H]3CSSC[C@@H](C(=O)N[C@@H](CCCNC(=N)N)C(=O)N[C@@H](CCCCN)C(=O)N[C@@H](CCC(=O)O)C(=O)N[C@H](C(N)=O)[C@@H](C)CC)NC(=O)[C@H](Cc4c[nH]c5ccccc45)NC(=O)[C@H](CC(C)C)NC(=O)[C@H](CCCCN)NC(=O)[C@H](CSSC[C@H](NC(=O)[C@H]([C@@H](C)O)NC(=O)[C@H](Cc4c[nH]c5ccccc45)NC1=O)C(=O)N[C@@H](CC(=O)O)C(=O)N[C@@H](CO)C(=O)N[C@@H](CCCCNC(=O)CCOCCOCCOCCOCCOCCOCCOCCOCCOCCOCCOCCOCCN)C(=O)N[C@@H](CCCNC(=N)N)C(=O)N[C@@H](C)C(=O)N3)NC(=O)[C@H](CCCNC(=N)N)NC(=O)[C@H](CC(C)C)NC(=O)CNC(=O)[C@H](CCC(=O)O)NC2=O [compound 566] | 103 | –
10 | CCCC[C@@H]1NC(=O)[C@H](Cc2c[nH]c3ccccc23)NC(=O)[C@H](CCCCN)NC(=O)[C@H](CCC(N)=O)NC(=O)[C@@H](NC(=O)[C@H](Cc2ccc(O)cc2)NC(=O)[C@@H](N)CCC(C)C)CSSC[C@@H]2NC(=O)[C@@H]3CSSC[C@@H](C(=O)N[C@@H](CCCNC(=N)N)C(=O)N[C@@H](CCCCN)C(=O)N[C@H](C(=O)N[C@H](C(N)=O)[C@@H](C)CC)[C@@H](C)CC)NC(=O)[C@H](Cc4c[nH]c5ccccc45)NC(=O)[C@H](CC(C)C)NC(=O)[C@H](CCCCN)NC(=O)[C@H](CSSC[C@H](NC(=O)[C@H]([C@@H](C)O)NC(=O)[C@H](Cc4c[nH]c5ccccc45)NC1=O)C(=O)N[C@@H](CC(=O)O)C(=O)N[C@@H](CO)C(=O)N[C@@H](CCCCN)C(=O)N[C@@H](CCCNC(=N)N)C(=O)N[C@@H](C)C(=O)N3)NC(=O)[C@H](CCCNC(=N)N)NC(=O)[C@H](CC(C)C)NC(=O)CNC(=O)[C@H](CCC(=O)O)NC2=O [compound 377] | 13 | 615
